The conditions of data set [1]: oral, in chylomicrons; cited from earlier work.
The conditions of data set [2]: application to skin of rats; cited from earlier work.
Data set [3] is described as follows: Experiment 5: [14C]-vitamin D3 left on skin at application site. As to conditions: for % [14C]-D3 Left on Skin: 2 weeks, 1440 min. The format is in vivo, Male Wistar rats. How it is done:
This experiment was to compare potential toxic effects of vitamin D3 given for a 2 wk period, at the near-fatal dose of 800 μg per day by gastric tube, or by dermal administration at 800 μg/day or 2600 μg/day. Another goal was find evidence of saturable dermal uptake by including [^14 C]-vitamin D3 to monitor its removal from the skin at the high doses of vitamin D3.
Male Wistar rats, 190±10 g were obtained and divided into three groups of 7. They were treated for 2 weeks with one the following: 2000 nmol/day of vitamin D3 by gastric tube; 800 μg/day applied to a 2×2 cm patch of skin on the back; 2600 μg/day skin. The day before killing, 66,000 counts per minute of [^14 C]-vitamin D3 was applied along with the dermal dose to permit a determination of uptake from the skin. The rats were killed after two weeks for analysis of serum, urine, kidney, and aorta. The calcium in urine and acid-treated homogenate of kidney was measured by chemical colorimetry; aorta calcium was measured by treating with nitric acid measuring calcium by atomic absorption.

A short description of data set [4]: Experiment 2: uptake of [14C]-vitamin D3 tracer into serum and conversion to [14C]-25(OH)D3. It counts as in vivo, Male Wistar rats. Here is the method: One dose of [carbon-14]-labelled vitamin D3 was given at the time of the last of 14 daily doses of nonradioactive vitamin D3. The graphs show the uptake and metabolism of one [^14 C]-vitamin D3 dose during the course of gastric or dermal supplementation with vitamin D3. The tracer was given in addition to the usual, 8 μg/day vitamin D3 dose, and by the same route. Radioactivity in serum was isolated by chromatography to measure that which elutes as vitamin D3, or as […], Each point is the mean of results from six rats;
Uptake of radioactive vitamin D3 from skin or gut during the longer term treatment with vitamin D3 at 20 nmol/day.
The previous experiment 1 involved only one acute dose of a minute, tracer amount of vitamin D3. It remained possible that dermal application could not deliver a larger, more nutritionally relevant amount of vitamin D3. This experiment 2 looked at what happens when vitamin D3 is given during the course of daily treatment with a moderate amount of vitamin D3.
After 30 days, the rats were divided into three groups of 6: one group continued with no supplement, one group was given daily vitamin D3 supplement, 8 μg/day either by gastric tube, the third received the supplement by application to the skin in 50 μL ethanol. Vitamin D3 was given for 3 wk. The day before the rats were killed, the vitamin D3 dose was supplemented with [^14 C]-labelled vitamin D3, 915,000 cpm per rat. Blood was obtained from the tail of each rat at 3 h, 9 h, and by heart puncture when the rats were anesthetized for killing, 24 h after giving the tracer. The blood was extracted and chromatographed to distinguish [^14 C]-vitamin D3 from the [^14 C]-25(OH)D3generated from it. Radioactivity was also measured in the liver, kidney, and adipose tissue. Serum nonradioactive 25(OH)D3 was also measured.

For the compound `C=C1CC[C@H](O)C/C1=C/C=C1\CCC[C@]2(C)[C@@H]([C@H](C)/C=C/[C@H](C)C(C)C)CC[C@@H]12` [vitamin D2], the “activation into 25-hydroxyvitamin D2” value in data set [1] is “partially activated into 25-hydroxyvitamin D2 relatively quickly”.

For the compound `C=C1/C(=C\C=C2/CCC[C@]3(C)[C@@H]([C@H](C)CCCC(C)(C)O)CC[C@@H]23)C[C@@H](O)C[C@@H]1O` [1,25(OH)2 D3], in data set [2], the intestinal calcium transport entry is listed as “increased” and the serum calcium result is “increased”.

For `C[C@H](CCCC(C)(C)O)[C@H]1CC[C@H]2C3=CC=C4CC(O)CC(O)[C@]4(C)[C@H]3CC[C@]12C` (stereo partly shown) [1,25-dihydroxylated-7-dehydrocholesterol], in data set [2], the intestinal calcium transport result is given as “increased” and the serum calcium entry is listed as “increased”.

As to `C=C1CC[C@H](O)[14CH2]/C1=C/C=C1\CCC[C@]2(C)[C@@H]([C@H](C)CCCC(C)C)CC[C@@H]12` [[^14 C]-vitamin D3], the “% [14C]-D3 Left on Skin” value in data set [3] (dermal 800 μg/day) is 47.8%; in data set [3] (dermal 2600 μg/day) it was 65.6%. In data set [3] (dermal 800 vs 2600 μg/day), the “proportion of administered vitamin D3 left in the skin, effect of dose” value is “only marginally affected by the dose”. For the same compound, in data set [4] (dermal administration, after dosing), the “time until [14C]-25(OH)D3 evident in serum” value is recorded as not below 24 h. The “[14C]-25(OH)D3 detection in serum” value in data set [4] (oral dosing) is recorded as “detected in every sample”.

The record behind these values is patent US5532229A, “Topical administration of vitamin D to mammals” (priority 1994, dated 1996).
